The results in this text go back to patent US8138357B2, “Compounds and their salts specific to the PPAR receptors and the EGF receptors and their use in the medical field” (Giuliani International Limited, priority 2005, dated 2012).

SMILES strings stand for the structures. Entries after “also recorded” stand apart in the source; their conditions may differ.

Series [1] relates to HT-29 STD cells. As to the kind of experiment: Cell proliferation by nuclear Ki-67 immunostaining. The following applies: Homo sapiens, 30 mM, 24 h, compared to untreated cells, read-out: inhibition of cell proliferation (Ki-67 staining). In kind it is cell-based. As for the experimental part: After 24 h of culture, HT-29 STD cells were treated during 24 h with the new molecules 13, 14, 17, 26 and 31, at 30 mM. […] The pH of the drug solutions was adjusted to 7.4 with NaOH. Cells were fixed in PFA 4%, permeabilized in PBS containing 0.1% Triton X-100™ at 4° C. and then incubated with goat normal serum and blocking buffer (1% BSA in PBS) to minimize non-specific adsorption of the antibody. Cell proliferation was assessed by a nuclear Ki-67 staining using mouse monoclonal primary antibody directed against Ki-67 (dilution 1:50 overnight; ZYMED™ Clinisciences™, Montrouge, France). […] Nuclei were stained with Hoescht 33342 solution (0.125 mg/mL) (Sigma-Aldrich™) and visualized under a fluorescence microscope (Leica™, Bensheim, Germany). Negative controls consisted of staining with a non-specific mouse serum instead of the specific antibody. Counts of at least 500 cells/sample were systematically performed blindly in one experiment. The results were expressed as the mean±SEM of the number of stained cells.

The nature of series [2]: Solubility in drug solutions / culture medium. The series is classed as physicochemical. The following applies: drug solutions for HT-29 experiments, 30 mM, pH 7.4.
For another series, the system named is DLD-1 cells. The series is described as follows: Cell growth by colorimetric BrdU incorporation assay, DLD-1. The series is classed as cell-based. The following applies: Homo sapiens, 48 hours; for inhibition at 500 µM: 0.5 mM; for inhibition at 1000 µM: 1 mM; for inhibition at 2500 µM: 2.5 mM; for inhibition at 5000 µM: 5 mM; for inhibition at 10000 µM: 10 mM. As for the experimental part:
(§1) HT-29 and DLD-1 cells were cultured in McCoy and RPMI1640 media respectively, supplemented with 10% fetal bovine serum (FBS), 1% penicillin/streptomycin (P/S) and 50 μg/ml gentamycin. HT-115 were cultured in DMEM medium supplemented with 15% FBS and 1% P/S. Cells were maintained in a humidified incubator at 37° C., in the presence of 5% CO2.
(§2) For cell growth assays, single-cell suspensions were plated at 2×10^3 cells/well (4×10^3 cells/well for HT115) in 96-well culture dishes in medium containing 0.5% FBS and allowed to adhere. The non-adherent cells were then removed, and fresh medium containing 0.5% FBS was added into each well. Cells were cultured in the presence or absence of the specified substances. Each substance was dissolved as a 25 mM stock solution in culture medium containing 0.5% FBS, and the pH of each stock solution was adjusted to 7.4, if necessary, with NaOH. Substances were used at a final concentration ranging from 0.5 to 10 mM. Cell proliferation was determined by measuring the incorporation of 5-bromo-2′-deoxyuridine (BrdU) into DNA using a commercially available cell proliferation kit (Roche Diagnostics™, Monza, Italy). BrdU was added to the cell cultures during the last 6 hours of incubation, and the level of BrdU-positive cells was assessed after 48 h culture by enzyme-linked immunosorbent assay (ELISA).
(§3) Optical density (OD) was determined at 450 nm using an ELISA reader. Experiments were performed in triplicate and the results are reported as the mean±standard deviation (SD).
Background: Dividing cells build labelled thymidine or BrdU into new DNA.

Series [3] has as its target T1, PPARγ (Homo sapiens, UniProt P37231).
T1 construct: HT-29 STD cells were transiently transfected using the Effectene™ transfection reagent; endogenous in cells; host or cells: HT-29 STD (human colon carcinoma)
T1 sequence (P37231 1-505): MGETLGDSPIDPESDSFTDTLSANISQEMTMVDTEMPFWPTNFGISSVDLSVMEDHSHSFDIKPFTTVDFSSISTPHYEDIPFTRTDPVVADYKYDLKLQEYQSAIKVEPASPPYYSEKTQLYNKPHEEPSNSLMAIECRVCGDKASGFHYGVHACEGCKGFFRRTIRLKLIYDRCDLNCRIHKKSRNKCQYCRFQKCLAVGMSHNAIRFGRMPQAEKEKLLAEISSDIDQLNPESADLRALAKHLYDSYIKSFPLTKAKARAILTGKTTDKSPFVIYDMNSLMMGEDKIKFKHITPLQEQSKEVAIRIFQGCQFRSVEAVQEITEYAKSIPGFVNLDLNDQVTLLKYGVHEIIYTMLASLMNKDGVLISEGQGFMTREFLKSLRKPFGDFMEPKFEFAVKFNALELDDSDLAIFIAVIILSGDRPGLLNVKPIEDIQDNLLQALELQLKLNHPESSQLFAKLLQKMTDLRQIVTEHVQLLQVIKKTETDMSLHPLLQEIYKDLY
The series is described as follows: PPARγ activation, PPRE (2XCYP) luciferase reporter in transfected HT-29 STD cells (Example 8). In kind it is cell-based. The note with it: 30 mM, 24 hours, HT-29 STD transfected with 2XCYP. As for the experimental part:
HT-29 STD cells were transiently transfected using the Effectene™ transfection reagent (Qiagen™) according to instructions from the manufacturer. To test PPARγ activation, we performed transfection with 500 ng of a minimal promoter construct containing two copies of PPRE obtained from the cytochrome p450 4A (2XCYP) (1). The renilla luciferase plasmid ([…]) was also transfected as an internal control for monitoring transfection efficiency and for normalizing the firefly luciferase activity. Transfected cells were left for 48 hours incubation at 37° C. […] The pH of the drug solutions was adjusted to 7.4 with NaOH. Total cell extracts were prepared using the Passive Lysis Buffer (Promega™, Madison, Wis.). Luciferase activity was assayed in 20 μl of the extract using the Promega™ Dual Luciferase assay system according to the manufacturer's protocol. Transfections were assayed in triplicate in at least three separate experiments. The luciferase activity was expressed as fold of the activity obtained in cells treated with the different molecules divided by luciferase activity from non-stimulated cells.
(Reporter assays use an easily measured gene product as a stand-in for the process of interest.)

Series [4] has as its system PPARγ. As to the kind of experiment: PPARγ protein expression by western blot in HT-29 cells. The note with it: 30 mM, 24 hours, HT-29, relative to β-actin. The series is classed as cell-based, human. As for the experimental part: The total proteins were obtained by cell homogenization in an extraction buffer consisting of PBS with 2% Triton™, Phenyl Methyl Sulphonyl Fluoride (PMSF) 100 mM and a classical protease inhibitor cocktail (2). The total proteins were then separated by polyacrylamide gel electrophoresis and electroblotted. Polyvinylidendifluoride (PVDF) membranes were incubated overnight with rabbit polyclonal primary antibody directed against PPARγ (dilution 1/500, TEBU, Le Perray en Yveline, France). β-actin was detected using a rabbit monoclonal primary antibody diluted at 1/10,000 (Sigma). Immunodetection with a secondary peroxidase-conjugated antibody (1/1000, Dako™, Trappes, France) and chemiluminescence was performed according to the manufacturer's protocol (ECL™, Amersham Pharmacia Biotech™, Orsay, France). Optical density values of PPARγ were given for each condition in proportion to the quantity of the internal control β-actin in the same sample (2).
Background: A western blot detects proteins with antibodies after separation by electrophoresis.

In the next series the test system is HT-29, HT-115 and DLD-1. The series is described as follows: Colon cancer cell growth by BrdU assay, three human colon carcinoma cell lines. In kind it is cell-based. The note with it: 48 h. As for the experimental part: For this purpose, three human colon carcinoma cell lines (i.e. HT-29, HT-115 and DLD-1) were used. These cell types were selected on the basis of the cyclooxigenase-2 (COX-2) expression. Indeed, HT-115 cells express a biologically active COX-2, HT-29 cells express a non-functional COX-2 isoform, and DLD-1 are COX-2-deficient cells.
as §1, §2, §3

Series [5] deals with HT-29 STD cells. As to the kind of experiment: Detection of apoptosis by TUNEL assay. The following applies: 30 mM, 24 h. In kind it is cell-based, human. As for the experimental part: After 24 h of culture, HT-29 STD cells were treated during 24 h with the new molecules 13, 14, 17, 26 and 31, at a concentration of 30 mM. […] The pH of the drug solutions was adjusted to 7.4 with NaOH. Cells undergoing apoptosis were identified by enzymatic labelling of DNA strands using a terminal transferase dUTP nick end labelling assay (TUNEL assay, Roche Diagnostics™, Meylan, France). Counts of at least 500 cells/sample were systematically performed blindly in one experiment. The results were expressed as the mean±SEM of the number of stained cells.

`Nc1cc2c(c(C(=O)O)c1)OCC2` [compound 17, 5-amino-2,3-dihydrobenzofuran-7-carboxylic acid]: the inhibition at 30000 µM with HT-29 STD cells [1] lay within 67 to 75%. In series [2], the solubility entry is reported as “poor solubility”. Also, in the series on DLD-1 cells, the inhibition at 500 µM is 0%, the inhibition at 1000 µM turned out to be 0%, the inhibition at 2500 µM came out at 33.3% and the inhibition at 5000 µM worked out at 89.3%. This compound also gave an inhibition at 10000 µM in the series on DLD-1 cells of 90.7%. Also, the “reporter gene activity, factor of increase relative to untreated cells” value at PPARγ [3] is “two-fold; also recorded: about twice”. In addition, the “induction of PPARγ protein levels quantified by western blot” value in the series on PPARγ [4] was 2 fold. Besides, the “anti-proliferative effect on colon cancer cell growth (in words)” value with HT-29, HT-115 and DLD-1 (0.5-10 mM) is “marked anti-proliferative effect”.

Take `CC(C)Oc1ccc(N)cc1C(=O)O` [compound 31, 5-amino-2-isopropoxybenzoic acid]: the inhibition at 30000 µM in the series on HT-29 STD cells [1] fell in the range of 67 to 75%. Also, the “apoptosis, epithelial cells identified by TUNEL” value with HT-29 STD cells [5] was found to be 80%. In the series with DLD-1 cells, this compound gave an inhibition at 500 µM of 0%, an inhibition at 1000 µM of 0%, an inhibition at 2500 µM of 0% and an inhibition at 5000 µM of 8.8%. The same compound returned an inhibition at 10000 µM in the series on DLD-1 cells of 31.7%. In addition, on PPARγ [3], the “reporter gene activity, factor of increase relative to untreated cells” value is on record as “two-fold; also recorded: about twice”. Further, the “induction of PPARγ protein levels quantified by western blot” value in the series on PPARγ [4] is recorded as 2 fold. In the series with HT-29, HT-115 and DLD-1 (final concentration 10 mM), the cell growth inhibition entry is listed as “significantly inhibited cell growth”.
